Measurements as given in patent US7838491B2, “Self-assembly and mineralization of peptide-amphiphile nanofibers” (Northwestern University, priority 2001, dated 2010).
Square brackets hold non-standard residues; d marks the D form. Peptide text beside a SMILES is read from it. * marks the point of attachment. Palmitoyl = CCCCCCCCCCCCCCCC(=O)*; pS = N[C@@H](COP(=O)(O)O)C(=O)O

Columns and labels:
Assay type in all cases: physicochemical
[1] = solubility of the PA in water
Procedure: (§1) After synthesis (see, example 10), the PA of FIG. 1 (characterized by ^1H NMR and MALDI-TOF MS: [M-H]^−1=1333) was treated with dithiothreitol (DTT) at a pH of 8 to reduce all cysteine residues to free thiols. […] Solutions more concentrated than 2.5 mg/ml form birefringent gels in water that are self-supporting upon inversion of the container. […] Negatives were digitized in the Umax PowerLook scanner with resolution 1200 dpi. The average thickness of the PA fibers was determined by two different procedures. First the Fourier transform of the images and following measurements of the distances between the peaks were performed in the NIH Image […] program. The second approach applied was averaging technique based on the cross-correlation method, widely used in single particle reconstruction using the EMAN […] program. For each data set 1200-1300 individual boxes were selected.

[2] = pH triggered self-assembly and gelation
Procedure: as §1
Upon lowering the pH below 4 with HCl the material self-assembles; when the pH is brought back to neutrality with KOH it disassembles. This pH triggered self-assembly and gelation allows the material to respond to its environment and thus may have applications in controlled release of molecules (W. A. Petka, J. L. Hardin, K. P. McGrath, D. Wirtz, D. A. Tirrell, Science 281, 389-392 (1998)).

[3] = TEM / cryo-TEM of self-assembled fibers
Procedure: as §1

[4] = stability of fibers in alkaline solution (pH 8)
Source text: Following self-assembly of PA molecules into fibers, the cysteine thiol groups were oxidized by treatment with 0.01M iodine. […] Importantly, the covalent capture process of this invention can be easily reversed by treating the fibers with a mild reducing agent such as DTT. […] Together with the controlled self-assembly, reversible cross-linking provides a highly dynamic system which can interconvert between discrete molecules, self-assembled supramolecular fibers, covalently captured polymeric fibers and back again to single small molecules depending solely on the environment in which the material is placed.

Question: Which solubility upon acidification ([1]; solution below pH 4) does the source give for CCCCCCCCCCCCCCCC(=O)N[C@@H](CS)C(=O)N[C@@H](CS)C(=O)N[C@@H](CS)C(=O)N[C@@H](CS)C(=O)NCC(=O)NCC(=O)NCC(=O)N[C@@H](COP(=O)(O)O)C(=O)N[C@@H](CCCNC(=N)N)C(=O)NCC(=O)N[C@@H](CC(=O)O)C(=O)O [PA 1, CCCCGGGS(P)RGD] (Palmitoyl-CCCCGGG[pS]RGD-OH) here?
Answer: rapidly becomes insoluble

Question: What about the solubility ([1]; water, pH 8, after DTT reduction of cysteines) of the same molecule?
Answer: > 50 mg/mL

Question: What about the “concentration dependence of fiber formation” value ([2]; 0.01 mg/ml to 50 mg/ml) of the same molecule?
Answer: concentration independent

Question: What about the “behaviour when pH is brought back to neutrality” value ([2]; KOH) of the same molecule?
Answer: disassembles

Question: And the “concentration at which solutions form self-supporting birefringent gels” value ([2]; in water)?
Answer: > 2500 µg/mL

Question: And the “pH at which the material self-assembles” value ([2]; pH lowered with HCl)?
Answer: below 4

Question: And the fiber diameter ([3]; TEM, positively and negatively stained dried fibers)?
Answer: 6.0±1 nm

Question: And the fiber length ([3]; cryo-TEM of gels)?
Answer: up to several microns

Question: What about the fiber diameter ([3]; cryo-TEM, native hydrated state) of the same molecule?
Answer: 7.6±1 nm

Question: And the “stability to alkaline solutions” value [4]?
Answer: disassemble within minutes
